# Assay results from PMC5826802 (Analytical biochemistry, 2017).
# Legend:
# [1] = molecular target: T1, PARP15 (Homo sapiens, UniProt Q460N3); assay: MLISA inhibition of PARP15-catalyzed automodification; assay type: biochemical; conditions: for inhibition effects on PARP15 activity: at concentrations up to 100 μM
# T1 sequence (Q460N3 481-678): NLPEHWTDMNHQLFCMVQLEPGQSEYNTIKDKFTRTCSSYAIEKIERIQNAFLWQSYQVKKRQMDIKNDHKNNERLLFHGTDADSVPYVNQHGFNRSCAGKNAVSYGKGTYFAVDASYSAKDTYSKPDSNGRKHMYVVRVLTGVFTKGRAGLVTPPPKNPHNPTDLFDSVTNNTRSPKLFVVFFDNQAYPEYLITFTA
# [2] = test system: PARP15; conditions: read-out: Km of PARP15 for automodification; reported previously; cited from earlier work
compound,measurement,setting,value
"Oc1cccc2c(O)nccc12 [1,5-Isoquinolinediol, 1,5-isoquinolinediol]",IC50,[1],8.5 ± 2.7 µM
"O=c1[nH]c2ccccc2c2ccccc12 [6(5H)-Phenanthridinone, 6(5H)-phenanthridinone]",IC50,[1],1.5 ± 0.5 µM
"Nc1ncnc2[nH]cnc12 [Adenine, adenine]",inhibition effects on PARP15 activity,[1],no significant inhibition effects
Cc1nc2c(c(=O)[nH]1)CSCC2 [DR2313],pIC50,"[1]; PARP15, 500 nM enzyme, 500 μM NAD+",5.1
CN(C)c1ccc(O)c2c1C[C@H]1C[C@H]3[C@H](N(C)C)C(O)=C(C(N)=O)C(=O)[C@@]3(O)C(O)=C1C2=O [Minocin],inhibition effects on PARP15 activity,[1],no significant inhibition effects
"NC(=O)c1ccc[n+]([C@@H]2O[C@H](COP(=O)([O-])OP(=O)(O)OC[C@H]3O[C@@H](n4cnc5c(N)ncnc54)[C@H](O)[C@@H]3O)[C@@H](O)[C@H]2O)c1 [NAD^+, nicotinamide adenine dinucleotide]",Km,[2],5.8 ± 1.9 µM
Oc1nc(-c2ccc(C(F)(F)F)cc2)nc2c1CSCC2 [XAV939],inhibition effects on PARP15 activity,[1],no significant inhibition effects
